Experimental data: PubChem BioAssay (NCI)
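Test compounds were applied to cells in 96-well plates for 48 hours at 5 doses. The concentration for 50% growth inhibition is given as GI50. The concentration for full growth arrest is given as TGI.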

Experiments:
Experiment in all cases: DTP human tumour cell line panel, 48 h
UACC-257 melanoma = tested on: UACC-257 melanoma
MALME-3M melanoma = tested on: MALME-3M melanoma
CCRF-CEM leukemia = tested on: CCRF-CEM leukemia
NCI-H460 lung = tested on: NCI-H460 lung
HCT-15 colon = tested on: HCT-15 colon
SN12C renal = tested on: SN12C renal
CAKI-1 renal = tested on: CAKI-1 renal
COLO 205 colon = tested on: COLO 205 colon
786-0 renal = tested on: 786-0 renal
NCI-H23 lung = tested on: NCI-H23 lung
TK-10 renal = tested on: TK-10 renal
HCC-2998 colon = tested on: HCC-2998 colon
U251 CNS = tested on: U251 CNS
DU-145 prostate = tested on: DU-145 prostate
OVCAR-3 ovarian = tested on: OVCAR-3 ovarian
SK-MEL-2 melanoma = tested on: SK-MEL-2 melanoma
HT29 colon = tested on: HT29 colon
K-562 leukemia = tested on: K-562 leukemia
SF-268 CNS = tested on: SF-268 CNS
UACC-62 melanoma = tested on: UACC-62 melanoma
MCF7 breast = tested on: MCF7 breast
BT-549 breast = tested on: BT-549 breast
T-47D breast = tested on: T-47D breast
RXF 393 renal = tested on: RXF 393 renal
HOP-62 NSCLC = tested on: HOP-62 NSCLC
PC-3 prostate = tested on: PC-3 prostate
HCT-116 colon = tested on: HCT-116 colon
SK-MEL-28 melanoma = tested on: SK-MEL-28 melanoma
NCI/ADR-RES ovarian = tested on: NCI/ADR-RES ovarian
OVCAR-8 ovarian = tested on: OVCAR-8 ovarian
SK-MEL-5 melanoma = tested on: SK-MEL-5 melanoma
SNB-19 CNS = tested on: SNB-19 CNS
SF-295 CNS = tested on: SF-295 CNS
KM12 colon = tested on: KM12 colon
A549 NSCLC = tested on: A549 NSCLC
IGROV1 ovarian = tested on: IGROV1 ovarian
SW-620 colon = tested on: SW-620 colon
MDA-MB-231 breast = tested on: MDA-MB-231 breast
UO-31 renal = tested on: UO-31 renal
OVCAR-4 ovarian = tested on: OVCAR-4 ovarian
LOX IMVI melanoma = tested on: LOX IMVI melanoma
OVCAR-5 ovarian = tested on: OVCAR-5 ovarian
HS 578T breast = tested on: HS 578T breast
SF-539 CNS = tested on: SF-539 CNS
EKVX NSCLC = tested on: EKVX NSCLC
HOP-92 NSCLC = tested on: HOP-92 NSCLC
NCI-H522 lung = tested on: NCI-H522 lung
SK-OV-3 ovarian = tested on: SK-OV-3 ovarian
RPMI-8226 leukemia = tested on: RPMI-8226 leukemia
MOLT-4 leukemia = tested on: MOLT-4 leukemia
MDA-MB-435 = tested on: MDA-MB-435
NCI-H226 lung = tested on: NCI-H226 lung
ACHN renal = tested on: ACHN renal
A498 renal = tested on: A498 renal
M14 melanoma = tested on: M14 melanoma

C=C1C(=O)O[C@H]2[C@H]1CC/C(COC(=O)CSCCSCC(=O)OC/C1=C/CC[C@@]3(C)O[C@H]3[C@H]3OC(=O)C(=C)[C@@H]3CC1)=C\CC[C@@]1(C)O[C@@H]21 showed a GI50 (UACC-257 melanoma) of 1930 nM, a TGI (UACC-257 melanoma) of 3930 nM and a GI50 (MALME-3M melanoma) of 1480 nM. The TGI (MALME-3M melanoma) was 3330 nM, the GI50 (CCRF-CEM leukemia) was 468 nM and the TGI (CCRF-CEM leukemia) was 3240 nM. It also gave a GI50 (NCI-H460 lung) of 2280 nM, a TGI (NCI-H460 lung) of 6430 nM and a GI50 (HCT-15 colon) of 1550 nM. The TGI (HCT-15 colon) was 3010 nM, the GI50 (SN12C renal) was 2190 nM and the TGI (SN12C renal) was 5340 nM. It also gave a GI50 (CAKI-1 renal) of 1790 nM, a TGI (CAKI-1 renal) of 3310 nM and a GI50 (COLO 205 colon) of 1480 nM. It also gave a TGI (COLO 205 colon) of 2950 nM, a GI50 (786-0 renal) of 1640 nM and a TGI (786-0 renal) of 3270 nM. For the same molecule, the GI50 (NCI-H23 lung) was 2250 nM, the TGI (NCI-H23 lung) was 5380 nM and the GI50 (TK-10 renal) was 1840 nM. For the same molecule, the TGI (TK-10 renal) was 3290 nM, the GI50 (HCC-2998 colon) was 1850 nM and the TGI (HCC-2998 colon) was 3520 nM. For the same molecule, the GI50 (U251 CNS) was 1660 nM, the TGI (U251 CNS) was 3510 nM and the GI50 (DU-145 prostate) was 1770 nM. The TGI (DU-145 prostate) was 3370 nM, the GI50 (OVCAR-3 ovarian) was 1150 nM and the TGI (OVCAR-3 ovarian) was 2440 nM. For the same molecule, the GI50 (SK-MEL-2 melanoma) was 2760 nM, the TGI (SK-MEL-2 melanoma) was 6640 nM and the GI50 (HT29 colon) was 1360 nM. For the same molecule, the TGI (HT29 colon) was 2680 nM, the GI50 (K-562 leukemia) was 1170 nM and the TGI (K-562 leukemia) was 25700 nM. It also gave a GI50 (SF-268 CNS) of 1710 nM, a TGI (SF-268 CNS) of 4080 nM and a GI50 (UACC-62 melanoma) of 2310 nM. The TGI (UACC-62 melanoma) was 5160 nM, the GI50 (MCF7 breast) was 832 nM and the TGI (MCF7 breast) was 2660 nM. It also gave a GI50 (BT-549 breast) of 1640 nM, a TGI (BT-549 breast) of 3270 nM and a GI50 (T-47D breast) of 1630 nM. The TGI (T-47D breast) was 3500 nM, the GI50 (RXF 393 renal) was 1550 nM and the TGI (RXF 393 renal) was 3030 nM. It also gave a GI50 (HOP-62 NSCLC) of 2450 nM, a TGI (HOP-62 NSCLC) of 7380 nM and a GI50 (PC-3 prostate) of 2500 nM. It also gave a TGI (PC-3 prostate) of 8330 nM, a GI50 (HCT-116 colon) of 1170 nM and a TGI (HCT-116 colon) of 2640 nM. For the same molecule, the GI50 (SK-MEL-28 melanoma) was 1920 nM, the TGI (SK-MEL-28 melanoma) was 3810 nM and the GI50 (NCI/ADR-RES ovarian) was 3610 nM. The TGI (NCI/ADR-RES ovarian) was 16700 nM, the GI50 (OVCAR-8 ovarian) was 1970 nM and the TGI (OVCAR-8 ovarian) was 4600 nM. It also gave a GI50 (SK-MEL-5 melanoma) of 1880 nM, a TGI (SK-MEL-5 melanoma) of 3720 nM and a GI50 (SNB-19 CNS) of 2850 nM. The TGI (SNB-19 CNS) was 9610 nM, the GI50 (SF-295 CNS) was 2290 nM and the TGI (SF-295 CNS) was 5760 nM. For the same molecule, the GI50 (KM12 colon) was 2080 nM, the TGI (KM12 colon) was 4060 nM and the GI50 (A549 NSCLC) was 2720 nM. The TGI (A549 NSCLC) was 8210 nM, the GI50 (IGROV1 ovarian) was 2350 nM and the TGI (IGROV1 ovarian) was 5600 nM. The GI50 (SW-620 colon) was 1480 nM, the TGI (SW-620 colon) was 3450 nM and the GI50 (MDA-MB-231 breast) was 1580 nM. For the same molecule, the TGI (MDA-MB-231 breast) was 3140 nM, the GI50 (UO-31 renal) was 1410 nM and the TGI (UO-31 renal) was 2750 nM. It also gave a GI50 (OVCAR-4 ovarian) of 2380 nM, a TGI (OVCAR-4 ovarian) of 6050 nM and a GI50 (LOX IMVI melanoma) of 1490 nM. The TGI (LOX IMVI melanoma) was 2920 nM, the GI50 (OVCAR-5 ovarian) was 2040 nM and the TGI (OVCAR-5 ovarian) was 4580 nM. For the same molecule, the GI50 (HS 578T breast) was 4650 nM, the TGI (HS 578T breast) was 38900 nM and the GI50 (SF-539 CNS) was 1550 nM. The TGI (SF-539 CNS) was 3120 nM, the GI50 (EKVX NSCLC) was 1660 nM and the TGI (EKVX NSCLC) was 3700 nM. The GI50 (HOP-92 NSCLC) was 1860 nM, the TGI (HOP-92 NSCLC) was 3820 nM and the GI50 (NCI-H522 lung) was 1290 nM. For the same molecule, the TGI (NCI-H522 lung) was 2800 nM, the GI50 (SK-OV-3 ovarian) was 4480 nM and the TGI (SK-OV-3 ovarian) was 15300 nM. The GI50 (RPMI-8226 leukemia) was 1320 nM, the TGI (RPMI-8226 leukemia) was 4480 nM and the GI50 (MOLT-4 leukemia) was 1160 nM. For the same molecule, the TGI (MOLT-4 leukemia) was 3890 nM, the GI50 (MDA-MB-435) was 2180 nM and the TGI (MDA-MB-435) was 5220 nM. For the same molecule, the GI50 (NCI-H226 lung) was 3510 nM, the TGI (NCI-H226 lung) was 13600 nM and the GI50 (ACHN renal) was 1700 nM. The TGI (ACHN renal) was 3230 nM, the GI50 (A498 renal) was 2750 nM and the TGI (A498 renal) was 10700 nM. For the same molecule, the GI50 (M14 melanoma) was 1990 nM and the TGI (M14 melanoma) was 4340 nM.
